Like-named read-outs stand apart in the source and are kept apart here.
What was measured:
[1] = system: Ba/F3-EGFR-G719S cell line; experiment: CellTiter-Glo (CTG) cell proliferation assay (Example A); format: cell-based; conditions: 72 hours, highest test concentration 1 µM
Method: Due to its high sensitivity and simple workflow, it is currently a widely used cell viability assay.
Cell viability was assessed by trypan blue exclusion to ensure viability above 90%. • c) Cells were adjusted to the desired density with complete growth medium and seeded into 96-well plates at 3,000 cells per well in 90 µL medium. • d) The seeded 96-well plates were incubated at 37°C under 5% CO2. • e) Ten-fold stock solutions of each compound were prepared, with the highest test concentration of 1 µM. Nine concentrations were generated by four-fold serial dilution. Subsequently, 10 µL of each diluted compound was transferred into the corresponding wells of the 96-well plates, with triplicate wells for each concentration. • f) The compound-treated 96-well plates were incubated for an additional 72 hours at 37°C under 5% CO2, followed by CTG analysis. • g) The CTG reagent was thawed and the cell plates were equilibrated to room temperature for 30 minutes. • h) An equal volume of CTG reagent was added to each well. • i) The plates were shaken on a plate shaker for 5 minutes to induce cell lysis. • j) Plates were incubated at room temperature for 20 minutes to stabilize the luminescent signal. • k) Luminescence was measured and data were collected.
Data were analyzed using GraphPad Prism 7.0 software. Nonlinear sigmoidal regression was applied to fit the dose-response curves, from which IC50 values were calculated.
Cell viability (%) was determined according to the following equation: Cell viability(%) = (Lumcompound−Lummedium control)/(Lumvehicle control−Lummedium control) × 100% [formula]

[2] = system: Cholangiocarcinoma PDX Model LD1-0060-200791; experiment: Cholangiocarcinoma PDX model in vitro antiproliferation assay (CTG); format: cell-based; conditions: for IC50: 144 h; for IC50 / Maximum Inhibition Rate (%) / Minimum Inhibition Rate (%): cultured 6 days, CTG; for Slope: slope of inhibition curve
Method: Tumor tissues were surgically excised from the subcutaneous tumors of tumor-bearing mice and immersed in HBSS buffer. Non-tumor and necrotic tissues were removed in a biosafety cabinet, and the tissues were cut into small pieces of 1-3 mm^3. Tumor pieces were digested with collagenase at 37°C for 1-2 hours. Single-cell suspensions were collected through a mesh, and centrifuged at 1200 rpm for 3 minutes to remove the supernatant. […] High-concentration drug stocks were diluted 1000× with BIO-MPM-1 medium to prepare 20× intermediate concentrations. Each well of a 96-well plate received 7.5 µL of the corresponding 20× drug solution or BIO-MPM-1 containing 2% DMSO (final DMSO concentration 0.2%). Then 135 µL of cell suspension was added per well. Cells were cultured continuously for 6 days at 37°C. Afterwards, 50 µL of CTG reagent was added per well. After mixing, 80 µL of the solution was measured in a multifunctional microplate reader for ATP content. Signals from each well were recorded to generate inhibition curves and calculate parameters such as IC50.
Inhibition curves were plotted using Xlfit (IDBS) to determine parameters including maximum inhibition, minimum inhibition, absolute IC50, relative IC50, and slope.
Proliferation rate (fold increase) was calculated as: Proliferation rate = (Vday6Control−Vday6Blank)/(Vday0Control−Vday0Blank) [formula]

Molecule	IC50 [1] [nM]	IC50 ([2]; read-out: Absolute IC50) [µM]	IC50 ([2]; read-out: Relative IC50) [µM]	Maximum Inhibition Rate (%) [2] [%]	Minimum Inhibition Rate (%) [2] [%]	Slope [2]
CCOc1cc2ncc(C#N)c(Nc3ccc(OCc4ccccn4)c(Cl)c3)c2cc1NC(=O)/C=C/CN1CC(F)(F)C1 [Compound A0903, (E)-N-(4-((3-chloro-4-(pyridin-2-ylmethoxy)phenyl)amino)-3-cyano-7-ethoxyquinolin-6-yl)-4-(3,3-difluoroazetidin-1-yl)but-2-enamide]	2.06					
CNCc1ccc(-c2cc3cc(F)cc(C(N)=O)c3o2)cc1 [CVL218]		5.77	7.08	110.0	6.4	1.57
(E)-N-(4-((3-chloro-4-(pyridin-2-ylmethoxy)phenyl)amino)-3-cyano-7-ethoxyquinolin-6-yl)-4-(3,3-difluoroazetidin-1-yl)but-2-enamide [Compound A0902]	2.53					
CCOc1cc2ncc(C#N)c(Nc3ccc(OCc4ccccn4)c(Cl)c3)c2cc1NC(=O)/C=C/CN1CC(N(C)C)C1 [Compound A0901, (E)-N-(4-((3-chloro-4-(pyridin-2-ylmethoxy)phenyl)amino)-3-cyano-7-ethoxyquinolin-6-yl)-4-(3-(dimethylamino)azetidin-1-yl)but-2-enamide]	16.8					
(E)-N-(4-((3-chloro-4-(pyridin-2-ylmethoxy)phenyl)amino)-3-cyano-7-ethoxyquinolin-6-yl)-4-(methanesulfonamido)but-2-enamide [Compound A0904]	2.18					
c1cc(-c2nc(N3CCOCC3)c3oc4ccc(CN5CC6CC5CO6)cc4c3n2)c2cc[nH]c2c1 (stereo not drawn) [CVL237]		3.48	3.41	99.5	-10.0	9.51
CCOc1cc2ncc(C#N)c(Nc3ccc(OCc4ccccn4)c(Cl)c3)c2cc1NC(=O)/C=C/CN(C)C.O=C(O)/C=C\C(=O)O [Compound A009, (E)-N-(4-(3-chloro-4-(pyridin-2-ylmethoxy)anilino)-3-cyano-7-ethoxyquinolin-6-yl)-4-(dimethylamino)but-2-enamide maleate, reference compound]		3.31	3.26	99.2	-10.0	13.13
C=C(CN1CCC(N(C)C)CC1)C(=O)Nc1cc2c(Nc3ccc(OCc4ccccn4)c(Cl)c3)c(C#N)cnc2cc1OCC [Compound A0906, N-(4-((3-chloro-4-(pyridin-2-ylmethoxy)phenyl)amino)-3-cyano-7-ethoxyquinolin-6-yl)-2-((4-(dimethylamino)piperidin-1-yl)methyl)propenamide]	152					
C=C(CN1CC(N(C)C)C1)C(=O)Nc1cc2c(Nc3ccc(OCc4ccccn4)c(Cl)c3)c(C#N)cnc2cc1OCC [Compound A0905, N-(4-((3-chloro-4-(pyridin-2-ylmethoxy)phenyl)amino)-3-cyano-7-ethoxyquinolin-6-yl)-2-((3-(dimethylamino)azetidin-1-yl)methyl)propenamide]	69.6					
